# Test results taken from US8178571B2, “Unsubstituted and substituted 4-benzyl-1,3-dihydro-imidazole-2-thiones acting as specific or selective alpha2 adrenergic agonists and methods for using the same” (Allergan, Inc., priority 2004, dated 2012).
# What was measured:
# Type in all cases: cell-based
# [1] = target: T1, alpha2A adrenergic receptor (Homo sapiens, UniProt P08913); assay: Receptor Selection and Amplification Technology (RSAT) assay, alpha2A; settings: NIH-3T3 cells, ratio of maximal effect to that of standard full agonist brimonidine (UK14304), NA = not active at concentrations less than 10 micromolar
# T1 construct: expressed in transfected cells; host or cells: NIH-3T3 cells
# T1 sequence (P08913 1-465): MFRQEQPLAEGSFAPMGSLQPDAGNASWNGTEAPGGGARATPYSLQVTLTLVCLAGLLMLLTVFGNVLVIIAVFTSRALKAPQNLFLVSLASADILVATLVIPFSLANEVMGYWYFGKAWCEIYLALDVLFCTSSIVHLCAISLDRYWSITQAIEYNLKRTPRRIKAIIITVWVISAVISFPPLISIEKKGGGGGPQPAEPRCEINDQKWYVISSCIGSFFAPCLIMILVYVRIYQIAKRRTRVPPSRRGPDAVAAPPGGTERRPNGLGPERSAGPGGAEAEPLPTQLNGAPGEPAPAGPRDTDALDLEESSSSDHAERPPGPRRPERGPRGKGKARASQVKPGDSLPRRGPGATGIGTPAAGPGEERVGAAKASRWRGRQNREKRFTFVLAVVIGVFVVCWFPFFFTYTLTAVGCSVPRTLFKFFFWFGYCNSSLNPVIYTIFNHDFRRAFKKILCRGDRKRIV
# Description: (§1) The imidazole-2-thione compounds of Formula 1 and the novel compounds 1 through 5 are used in accordance with the present invention as agonists of alpha2 adrenergic receptors. Some compounds of Formula 1 may act as specific or selective agonists of alpha2B and/or to alpha2C adrenergic receptors, in preference over alpha2A adrenergic receptors. […] The specific or selective activity of the compounds of Formula 1 in general and of the novel compounds of the invention can be tested in an assay titled Receptor Selection and Amplification technology (RSAT) assay, which is described in the publication by Messier et. Al., 1995, Pharmacol. Toxicol. 76, pp. 308-311 (incorporated herein by reference) and is also described below. […]
# (§2) The RSAT assay measures a receptor-mediated loss of contact inhibition that results in selective proliferation of receptor-containing cells in a mixed population of confluent cells. The increase in cell number is assessed with an appropriate transfected marker gene such as beta-galactosidase, the activity of which can be easily measured in a 96-well format. […]
# (§3) NIH-3T3 cells are plated at a density of 2×10^6 cells in 15 cm dishes and maintained in Dulbecco's modified Eagle's medium supplemented with 10% calf serum. […] The absorbance is a measure of enzyme activity, which depends on cell number and reflects a receptor-mediated cell proliferation. […]
# [2] = target: T2, alpha2C adrenergic receptor (Homo sapiens, UniProt P18825); assay: Receptor Selection and Amplification Technology (RSAT) assay, alpha2C; settings: NIH-3T3 cells, ratio of maximal effect to that of standard full agonist brimonidine (UK14304), NA = not active at concentrations less than 10 micromolar
# T2 construct: expressed in transfected cells; host or cells: NIH-3T3 cells
# T2 sequence (P18825 1-462): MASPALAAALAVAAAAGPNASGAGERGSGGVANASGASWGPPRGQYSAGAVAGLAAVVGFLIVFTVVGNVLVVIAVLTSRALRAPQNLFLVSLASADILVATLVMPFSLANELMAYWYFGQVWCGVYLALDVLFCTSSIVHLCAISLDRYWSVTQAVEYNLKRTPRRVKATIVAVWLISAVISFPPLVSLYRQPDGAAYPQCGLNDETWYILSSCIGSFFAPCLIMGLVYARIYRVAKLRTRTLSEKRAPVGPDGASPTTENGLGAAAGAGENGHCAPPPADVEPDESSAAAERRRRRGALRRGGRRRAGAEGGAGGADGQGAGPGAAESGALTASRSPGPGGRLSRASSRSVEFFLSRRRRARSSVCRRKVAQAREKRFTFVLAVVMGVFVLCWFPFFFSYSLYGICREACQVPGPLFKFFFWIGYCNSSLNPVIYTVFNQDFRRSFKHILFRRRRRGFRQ
# Description: as §1, §2, §3
# [3] = target: T3, alpha2B adrenergic receptor (Homo sapiens, UniProt P18089); assay: Receptor Selection and Amplification Technology (RSAT) assay, alpha2B; settings: for Intrinsic Activity Alpha 2B: RSAT, NIH-3T3 cells, ratio of maximal effect to that of standard full agonist brimonidine (UK14304), NA = not active at concentrations less than 10 micromolar; for Specificity or selectivity for alpha2B (and/or alpha2C) over alpha2A adrenergic receptors: statement in words, RSAT assay
# T3 construct: expressed in transfected cells; host or cells: NIH-3T3 cells
# T3 sequence (P18089 1-450): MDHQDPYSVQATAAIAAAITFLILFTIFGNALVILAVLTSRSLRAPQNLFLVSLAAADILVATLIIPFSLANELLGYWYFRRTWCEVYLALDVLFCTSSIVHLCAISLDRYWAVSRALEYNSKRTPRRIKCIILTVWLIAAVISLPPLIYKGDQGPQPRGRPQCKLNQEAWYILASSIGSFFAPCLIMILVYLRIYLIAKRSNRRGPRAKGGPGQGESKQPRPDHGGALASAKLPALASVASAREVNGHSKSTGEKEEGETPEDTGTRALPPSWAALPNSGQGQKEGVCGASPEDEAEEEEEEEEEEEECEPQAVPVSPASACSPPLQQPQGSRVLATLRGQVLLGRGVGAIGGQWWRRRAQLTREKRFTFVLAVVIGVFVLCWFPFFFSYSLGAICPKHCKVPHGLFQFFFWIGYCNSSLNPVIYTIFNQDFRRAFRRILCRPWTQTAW
# Description: The imidazole-2-thione compounds of Formula 1 and the novel compounds 1 through 5 are used in accordance with the present invention as agonists of alpha2 adrenergic receptors. Some compounds of Formula 1 may act as specific or selective agonists of alpha2B and/or to alpha2C adrenergic receptors, in preference over alpha2A adrenergic receptors. […] The specific or selective activity of the compounds of Formula 1 in general and of the novel compounds of the invention can be tested in an assay titled Receptor Selection and Amplification technology (RSAT) assay, which is described in the publication by Messier et. Al., 1995, Pharmacol. Toxicol. 76, pp. 308-311 (incorporated herein by reference) and is also described below. Another reference pertinent to this assay is Conklin et al. (1993) Nature 363:274-6, Receptor Selection and Amplification Technology (RSAT) assay, also incorporated herein by reference.
# The RSAT assay measures a receptor-mediated loss of contact inhibition that results in selective proliferation of receptor-containing cells in a mixed population of confluent cells. The increase in cell number is assessed with an appropriate transfected marker gene such as beta-galactosidase, the activity of which can be easily measured in a 96-well format. Receptors that activate the G protein, Gq, elicit this response. Alpha2 receptors, which normally couple to Gi, activate the RSAT response when coexpressed with a hybrid Gq protein that has a Gi receptor recognition domain, called Gq/i5.
# NIH-3T3 cells are plated at a density of 2×10^6 cells in 15 cm dishes and maintained in Dulbecco's modified Eagle's medium supplemented with 10% calf serum. One day later, cells are cotransfected by calcium phosphate precipitation with mammalian expression plasmids encoding p-SV-beta-galactosidase (5-10 μg), receptor (1-2 μg) and G protein (1-2 μg). 40 μg salmon sperm DNA may also be included in the transfection mixture. Fresh media is added on the following day and 1-2 days later, cells are harvested and frozen in 50 assay aliquots. Cells are thawed and 100 μl added to 100 μl aliquots of various concentrations of drugs in triplicate in 96-well dishes. Incubations continue 72-96 hr at 37° C. After washing with phosphate-buffered saline, beta-galactosidase enzyme activity is determined by adding 200 μl of the chromogenic substrate (consisting of 3.5 mM o-nitrophenyl-beta-D-galactopyranoside and 0.5% nonidet P-40 in phosphate buffered saline), incubating overnight at 30° C. and measuring optical density at 420 nm. The absorbance is a measure of enzyme activity, which depends on cell number and reflects a receptor-mediated cell proliferation. The efficacy or intrinsic activity is calculated as a ratio of the maximal effect of the drug to the maximal effect of a standard full agonist for each receptor subtype. Brimonidine, also called UK14304, the chemical structure of which is shown below, is used as the standard agonist for the alpha2A, alpha2B and alpha2C receptors.
Structure (SMILES),Intrinsic Activity Alpha 2A [1],Intrinsic Activity Alpha 2C [2],Intrinsic Activity Alpha 2B [3],Specificity or selectivity for alpha2B (and/or alpha2C) over alpha2A adrenergic receptors [3]
"S=c1[nH]cc(Cc2c(Cl)cccc2Cl)[nH]1 [Compound 1, 4-(2,6-dichloro-benzyl)-1,3-dihydro-imidazole-2-thione]",0.74,1.18,1.11,
"Fc1c(Cl)cccc1Cc1c[nH]c(=S)[nH]1 [Compound 2, 4-(3-chloro-2-fluoro-benzyl)-1,3-dihydro-imidazole-2-thione]",0.78,,1.05,
"Fc1ccccc1Cc1c[nH]c(=S)[nH]1 [Compound 3, 4-(2-fluoro-benzyl)-1,3-dihydro-imidazole-2-thione]",,,1.3,specific agonists of alpha2B agonists in preference over alpha2A and alpha2C adrenergic receptors
"Fc1ccc(Cc2c[nH]c(=S)[nH]2)cc1 [Compound 4, 4-(4-fluoro-benzyl)-1,3-dihydro-imidazole-2-thione]",,,0.92,specific agonists of alpha2B agonists in preference over alpha2A and alpha2C adrenergic receptors
"S=c1[nH]cc(Cc2ccc(Cl)cc2Cl)[nH]1 [Compound 5, 4-(2,4-dichloro-benzyl)-1,3-dihydro-imidazole-2-thione]",,,0.95,specific agonists of alpha2B agonists in preference over alpha2A and alpha2C adrenergic receptors
"N#Cc1ccc(-c2ccccc2Cc2c[nH]c(=S)[nH]2)cc1 [Compound 6, 2′-(2-Thioxo-2,3-dihydro-1H-imidazol-4-ylmethyl)-biphenyl-4-carbonitrile]",,0.71,0.70,
